Results: patent US20070197512A1, “Carboxylic Acid Compounds and Use Thereof” (Japan Tobacco Inc., priority 2006, published 2007)

molecular target: T1, human URAT1 (Homo sapiens, UniProt Q96S37); assay: Uric acid transport inhibitory test using human URAT1-expressing cells; format: cell-based; details: human URAT1-expressing HEK293 cells, 14C-uric acid 50 μM, uptake 5 min, room temperature; read-out: hURAT1 IC50
T1 construct: Human URAT1 full length cDNA was subcloned to expression vector pcDNA3.1; expressed in transfected cells; host or cells: HEK293 cells (pcDNA3.1, geneticin-selected)
T1 sequence (Q96S37 1-553): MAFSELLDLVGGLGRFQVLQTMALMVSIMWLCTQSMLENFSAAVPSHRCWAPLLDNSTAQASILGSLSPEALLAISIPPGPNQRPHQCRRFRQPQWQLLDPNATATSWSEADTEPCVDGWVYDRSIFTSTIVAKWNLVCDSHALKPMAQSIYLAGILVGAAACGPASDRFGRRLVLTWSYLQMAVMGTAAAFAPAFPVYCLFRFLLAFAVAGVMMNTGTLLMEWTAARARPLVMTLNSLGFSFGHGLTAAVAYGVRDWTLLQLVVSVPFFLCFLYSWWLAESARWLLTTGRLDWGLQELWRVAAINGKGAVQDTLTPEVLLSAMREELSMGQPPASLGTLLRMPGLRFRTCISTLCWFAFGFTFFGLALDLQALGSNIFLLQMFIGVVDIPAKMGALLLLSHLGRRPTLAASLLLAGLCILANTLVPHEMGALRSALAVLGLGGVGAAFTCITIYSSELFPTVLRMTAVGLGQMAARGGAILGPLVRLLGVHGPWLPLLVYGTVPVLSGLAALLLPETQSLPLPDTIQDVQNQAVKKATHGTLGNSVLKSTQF
Source text: Experimental Example 1 Uric Acid Transport Inhibitory Test Using Human URAT1-Expressing Cells
Human URAT1 full length cDNA was subcloned to expression vector pcDNA3.1 and human URAT1 gene was transfected into human embryonic kidney derived cell line (HEK293 cells) by liposome method using Lipofectamine2000. Simultaneously, HEK293 cells transfected with expression vector pcDNA3.1 alone (hereinafter mock cells) were also produced. HEK293 cells expressing human URAT1 gene or mock cells were selected with geneticin resistance as an index. The functional expression of human URAT1 gene was confirmed by a method similar to the following method, using ^14C-uric acid transport into the cells as an index.
Human URAT1-expressing HEK293 cells or mock cells were cultured in Dulbecco's modified Eagle's MEM medium (high glucose) containing 10% fetal bovine serum, 0.5 mg/mL geneticin sulfate, 100 units/mL penicillin and 100 μg/mL streptomycin under the conditions of 37° C. and 5% CO2 in an incubator. The cells were plated in a 96 well plate (poly-D-Lysine coated) at 1×10^5 cells/well and the following uric acid transport inhibitory test was performed 24 hr later. This test was performed at room temperature.
After the medium was removed by aspiration from each well, the cells were washed once with Hank's Balanced Salt Solution (HBSS) and preincubated with HBSS (100 μL/well) for 5 min. HBSS was aspirated and an assay buffer (wherein NaCl in the above-mentioned HBSS had been substituted with Na-gluconate) containing various concentrations of the Example compound and a radioactive ligand (14C-uric acid; final concentration 50 μM) was added to each well at 50 μL/well and an uptake reaction was carried out for 5 min. After the reaction, the cells were washed twice with ice-cold HBSS (150 μL/well), and Microscinti™ 20 (PerkinElmer) was added at 50 μL/well. The cells were lysed by stirring and the radioactivity of each well was measured by a liquid scintillation counter (TOP COUNT, Packard).
The uric acid transport rate (%) of the Example compound at each concentration was calculated relative to the radioactivity (difference in radioactivity between human URAT1-expressing HEK293 cells and mock cells without addition of Example compound (DMSO addition)) showing URAT1 specific uric acid transport as 100%, and the concentration (IC50) of the Example compound necessary for inhibiting the uric acid transport rate by 50% was determined. In Table 24-Table 27, “+++” means IC50 value of less than 300 nM, “++” means IC50 value of 300 nM to less than 3000 nM, and “+” means IC50 value of not less than 3000 nM.

`CC(C)c1cccc2c1OC(C(C)C)CN2C(=O)CC(=O)O` (stereo not shown) [Example 31, 3-(2,8-diisopropyl-2,3-dihydrobenzo[1,4]oxazin-4-yl)-3-oxopropionic acid] and `CC(C)C1CN(C(=O)/C=C/C(=O)O)c2cccc(C(C)(C)C)c2O1` (stereo not shown) [Example 52, (E)-4-(8-tert-butyl-2-isopropyl-2,3-dihydrobenzo[1,4]oxazin-4-yl)-4-oxo-2-butenoic acid] cannot be ordered by IC50: no less than 3 µM for the first, no less than 3 µM for the second.

`CC(C)c1cccc2c1OC(C)(C)C(=O)N2CCC(=O)O` [Example 33, 3-(8-isopropyl-2,2-dimethyl-3-oxo-2,3-dihydrobenzo[1,4]oxazin-4-yl)propionic acid] and `CC(C)c1cccc2c1OC(C)(C)C(=O)N2CC(=O)O` [Example 34, (8-isopropyl-2,2-dimethyl-3-oxo-2,3-dihydrobenzo[1,4]oxazin-4-yl)acetic acid] cannot be ordered by IC50: no less than 3 µM for the first, no less than 3 µM for the second.

First: CC(C)C1Sc2ccccc2N(CCC(=O)O)C1=O (stereo not shown) [Example 22, 3-(2-isopropyl-3-oxo-2,3-dihydrobenzo[1,4]thiazin-4-yl)propionic acid]
Second: Cc1cccc2c1OC(C(C)C)C(=O)N2CCC(=O)O (stereo not shown) [Example 44, 3-(2-isopropyl-8-methyl-3-oxo-2,3-dihydrobenzo[1,4]oxazin-4-yl)propionic acid]
The IC50 of the first is higher: 0.3 to 3 µM for the first, less than 0.3 µM for the second. The second is the more potent here.

`CC(C)C1Oc2c(Cl)cc(Cl)cc2N(CCC(=O)O)C1=O` (stereo not shown) [Example 80, 3-(6,8-dichloro-2-isopropyl-3-oxo-2,3-dihydrobenzo[1,4]oxazin-4-yl)propionic acid] and `CC(C)C1Oc2ccc(Cl)cc2N(CCC(=O)O)C1=O` (stereo not shown) [Example 63, 3-(6-chloro-2-isopropyl-3-oxo-2,3-dihydrobenzo[1,4]oxazin-4-yl)propionic acid] cannot be ordered by IC50: less than 0.3 µM for the first, less than 0.3 µM for the second.

`O=C(O)CN1C(=S)COc2ccccc21` [Example 17, (3-thioxo-2,3-dihydrobenzo[1,4]oxazin-4-yl)acetic acid] and `O=C(O)CCN1C(=O)COc2ccccc21` [Example 19, 3-(3-oxo-2,3-dihydrobenzo[1,4]oxazin-4-yl)propionic acid] cannot be ordered by IC50: no less than 3 µM for the first, no less than 3 µM for the second.

`Cc1ccc2c(c1)OC(c1ccccc1)C(=O)N2CCC(=O)O` (stereo not shown) [Example 48, 3-(7-methyl-3-oxo-2-phenyl-2,3-dihydrobenzo[1,4]oxazin-4-yl)propionic acid] and `Cc1cccc2c1OC(c1ccccc1)C(=O)N2CCC(=O)O` (stereo not shown) [Example 47, 3-(8-methyl-3-oxo-2-phenyl-2,3-dihydrobenzo[1,4]oxazin-4-yl)propionic acid] cannot be ordered by IC50: no less than 3 µM for the first, 0.3 to 3 µM for the second.

`CCc1cccc2c1OC(c1ccccc1)C(=O)N2CCC(=O)O` (stereo not shown) [Example 59, 3-(8-ethyl-3-oxo-2-phenyl-2,3-dihydrobenzo[1,4]oxazin-4-yl)propionic acid] and `CC(C)(C)c1cccc2c1OC(c1ccccc1)C(=O)N2CCC(=O)O` (stereo not shown) [Example 49, 3-(8-tert-butyl-3-oxo-2-phenyl-2,3-dihydrobenzo[1,4]oxazin-4-yl)propionic acid] fall in the same range of IC50: 0.3 to 3 µM for the first, 0.3 to 3 µM for the second.

`CCC1Oc2c(C(C)C)cccc2N(CCC(=O)O)C1=O` (stereo not shown) [Example 40, 3-(2-ethyl-8-isopropyl-3-oxo-2,3-dihydrobenzo[1,4]oxazin-4-yl)propionic acid] and `CC(C)c1cccc2c1OCC(=O)N2CCC(=O)O` [Example 35, 3-(8-isopropyl-3-oxo-2,3-dihydrobenzo[1,4]oxazin-4-yl)propionic acid] cannot be ordered by IC50: 0.3 to 3 µM for the first, no less than 3 µM for the second.

`Cc1cc(C)c2c(c1)N(CCC(=O)O)C(=O)C(C)(C)O2` [Example 89, 3-(2,2,6,8-tetramethyl-3-oxo-2,3-dihydrobenzo[1,4]oxazin-4-yl)propionic acid] and `Cc1cc(C)c2c(c1)N(CCC(=O)O)C(=O)C(C)O2` (stereo not shown) [Example 86, 3-(2,6,8-trimethyl-3-oxo-2,3-dihydrobenzo[1,4]oxazin-4-yl)propionic acid] cannot be ordered by IC50: no less than 3 µM for the first, no less than 3 µM for the second.

First: CC(C)c1cccc2c1OC(c1ccccc1)C(=O)N2CC(=O)O (stereo not shown) [Example 26, (8-isopropyl-3-oxo-2-phenyl-2,3-dihydrobenzo[1,4]oxazin-4-yl)acetic acid]
Second: Cc1cc(C)c2c(c1)N(CCC(=O)O)C(=O)C(c1ccccc1)O2 (stereo not shown) [Example 72, 3-(6,8-dimethyl-3-oxo-2-phenyl-2,3-dihydrobenzo[1,4]oxazin-4-yl)propionic acid]
The IC50 of the first is higher: no less than 3 µM for the first, less than 0.3 µM for the second.

`CC(C)C1Oc2ccccc2N(CC(=O)O)C1=O` (stereo not shown) [Example 6, (2-isopropyl-3-oxo-2,3-dihydrobenzo[1,4]oxazin-4-yl)acetic acid] and `CC(C)C1Oc2ccccc2N(CC(=O)O)C1=S` (stereo not shown) [Example 13, (2-isopropyl-3-thioxo-2,3-dihydrobenzo[1,4]oxazin-4-yl)acetic acid] cannot be ordered by IC50: no less than 3 µM for the first, no less than 3 µM for the second.

`CC(C)C1CN(C(=O)/C=C/C(=O)O)c2cccc(C3CCCCC3)c2O1` (stereo not shown) [Example 79, (E)-4-(8-cyclohexyl-2-isopropyl-2,3-dihydrobenzo[1,4]oxazin-4-yl)-4-oxo-2-butenoic acid] and `CC(C)C1Oc2c(C3CCCCC3)cccc2N(CCC(=O)O)C1=O` (stereo not shown) [Example 50, 3-(8-cyclohexyl-2-isopropyl-3-oxo-2,3-dihydrobenzo[1,4]oxazin-4-yl)propionic acid] cannot be ordered by IC50: no less than 3 µM for the first, no less than 3 µM for the second.

`Cc1ccc2c(c1)OC(c1ccccc1)CN2C(=O)/C=C/C(=O)O` (stereo not shown) [Example 57, (E)-4-(7-methyl-2-phenyl-2,3-dihydrobenzo[1,4]oxazin-4-yl)-4-oxo-2-butenoic acid] and `O=C(O)/C=C\C(=O)N1CCOc2ccccc21` [Example 25, (Z)-4-(2,3-dihydrobenzo[1,4]oxazin-4-yl)-4-oxo-2-butenoic acid] cannot be ordered by IC50: no less than 3 µM for the first, no less than 3 µM for the second.

`CC(C)C1Oc2cc([N+](=O)[O-])ccc2N(CCC(=O)O)C1=O` (stereo not shown) [Example 95, 3-(2-isopropyl-7-nitro-3-oxo-2,3-dihydrobenzo[1,4]oxazin-4-yl)propionic acid] and `CC(C)C1Oc2ccc(C(F)(F)F)cc2N(CCC(=O)O)C1=O` (stereo not shown) [Example 97, 3-(2-isopropyl-3-oxo-6-trifluoromethyl-2,3-dihydrobenzo[1,4]oxazin-4-yl)propionic acid] cannot be ordered by IC50: no less than 3 µM for the first, 0.3 to 3 µM for the second.

`CC(C)c1cccc2c1OC(C(C)C)C(=S)N2CCCC(=O)O` (stereo not shown) [Example 20, 4-(2,8-diisopropyl-3-thioxo-2,3-dihydrobenzo[1,4]oxazin-4-yl)butyric acid] and `CC(C)C1Oc2c(cccc2C(C)(C)C)N(CCC(=O)O)C1=O` (stereo not shown) [Example 46, 3-(8-tert-butyl-2-isopropyl-3-oxo-2,3-dihydrobenzo[1,4]oxazin-4-yl)propionic acid] cannot be ordered by IC50: no less than 3 µM for the first, no less than 3 µM for the second.

`CCCCC1Oc2c(C)cc(C)cc2N(CCC(=O)O)C1=O` (stereo not shown) [Example 93, 3-(2-butyl-6,8-dimethyl-3-oxo-2,3-dihydrobenzo[1,4]oxazin-4-yl)propionic acid] and `CC(C)C1Oc2c(cc(C(F)(F)F)cc2C(F)(F)F)N(CCC(=O)O)C1=O` (stereo not shown) [Example 103, 3-[2-isopropyl-3-oxo-6,8-bis(trifluoromethyl)-2,3-dihydrobenzo[1,4]oxazin-4-yl]propionic acid] fall in the same range of IC50: 0.3 to 3 µM for the first, 0.3 to 3 µM for the second.

`CC1(C)Oc2ccccc2N(CC(=O)O)C1=O` [Example 5, (2,2-dimethyl-3-oxo-2,3-dihydrobenzo[1,4]oxazin-4-yl)acetic acid] and `CC(C)c1cccc2c1OCC(=O)N2CC(=O)O` [Example 10, (8-isopropyl-3-oxo-2,3-dihydrobenzo[1,4]oxazin-4-yl)acetic acid] cannot be ordered by IC50: no less than 3 µM for the first, no less than 3 µM for the second.
